One series has as its target RGS8 (Homo sapiens (Human), UniProt P57771). Kind of series: FCPIA: Gαo binding to RGS8. The conditions noted are these: for IC50: read-out: RGS8 IC50; for RGS8 Hill Slope: Table 3. The text has this: (§1) FCPIA Dose Response and Reversibility Experiments:
For the next series, the target named is 107C RGS8 (C160S) (Homo sapiens (Human), UniProt P57771, C160S). The series is described as follows: FCPIA: RGS8 mutant 107C. In kind it is binding. The method, then: (§2) With the exception of RGS8 mutants, all RGS and G proteins were prepared as previously described (Roman, D., et al., Mol Pharmacol). […] Mutagenesis was performed using the QuickChange Multi-site Directed Mutagenesis kit (Agilent, La Jolla Calif.).
Sequence of 107C RGS8 (C160S) (P57771 other isoform, or with tags, fused parts or gaps C160S): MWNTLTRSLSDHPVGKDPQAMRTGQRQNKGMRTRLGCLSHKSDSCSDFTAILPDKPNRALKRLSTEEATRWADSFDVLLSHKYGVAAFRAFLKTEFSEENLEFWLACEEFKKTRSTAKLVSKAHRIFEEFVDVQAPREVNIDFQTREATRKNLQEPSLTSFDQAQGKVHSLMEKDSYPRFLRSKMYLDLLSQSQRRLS
(§3) This protein only contains two cysteines in the RGS homology domain, making it a simpler model system to study than other RGS proteins. Each cysteine from the RGS8 RGS homology (RH) domain was individually mutated to serine and the activity of the compound was analyzed via FCPIA (FIG. 6).

The target in another series is 160C RGS8 (C107S) (Homo sapiens (Human), UniProt P57771, C107S). Kind of series: FCPIA: RGS8 mutant 160C. In kind it is binding. The procedure: as §2, §3
Sequence of 160C RGS8 (C107S) (P57771 other isoform, or with tags, fused parts or gaps C107S): as the sequence (P57771 other isoform, or with tags, fused parts or gaps C160S) above, with C107S, S160C counted along it
A short description of a further series: Solubility experiments. The format is physicochemical. Conditions: water; aqueous. The method, then: Compounds were diluted to 100 mM in DMSO and the further diluted to 500 μM in H2O, vortexed and centrifuged for 10 minutes at 13,000×g at ambient temperature.
In the next series the test system is HEK-293 cells. The series is described as follows: WST-1 cell viability. The format is cell-based. Conditions: up to 100 μM, overnight. The method, then: WST-1 Cell Viability Studies:
HEK-293 cells were plated to a density of 30,000/well in 96-well plates and grown for 48 hours in Dulbecco's Modified Eagle Medium (DMEM) containing 10% fetal bovine serum and Penicillin (100 units/ml)-Streptomycin (100 μg/ml) under 5% CO2 at 37° C. Compound treatment was performed overnight in DMEM containing 0.1% bovine serum albumin under 5% CO2 at 37° C. After compound incubation ten microliters of the WST-1 reagent (Hoffmann-La Roche, Switzerland) was added to every well and the cells were incubated for 1 hour under 5% CO2 at 37° C. Absorbance was measured at 450 nm using a Victor II plate reader (Perkin-Elmer, Picastaway, N.J.).

The test system of the next series is δ-opioid receptor. The series is described as follows: cAMP accumulation in SH-SY5Y cells, SNC80. The format is cell-based. The method, then:
Accumulated cAMP was measured by radioimmunoassay in a 10-15 μl aliquot of the supernatant from each sample following the manufacturer's instructions (cAMP radioimmunoassay kit from GE Healthcare, Piscataway, N.J.). Data are from four separate experiments, each carried out in duplicates and calculated as percent inhibition.
Cells were plated into 24-well plates to reach ˜90% confluency on the day of assay and washed once with fresh serum-free medium. […] Accumulated cAMP was measured by radioimmunoassay in a 10-15 μl aliquot of the supernatant from each sample following the manufacturer's instructions (cAMP radioimmunoassay kit from GE Healthcare, Piscataway, N.J.). Data are from four separate experiments, each carried out in duplicates and calculated as percent inhibition.
For orientation: Cyclic AMP is a second messenger, typically raised through Gs and lowered through Gi signalling.

Series [1] addresses RGS4 (Homo sapiens (Human), UniProt P49798). Kind of series: FCPIA: Gαo binding to RGS4. Conditions: for RGS4 Hill Slope: Table 3; for IC50: Table 3, duplex FCPIA, average of two experiments.
Description: as §1

For the next series, the system named is HEK293 cells. The series is described as follows: Calcium mobilization induced by compound alone.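 Further: percent of response to 10 µM reference CCG-50014.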 In kind it is cell-based. Conditions: Homo sapiens, HEK293; read-out: Calcium transient (% 50014). Summed up: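 HEK-293 Flp-In TREx cells stably expressing muscarinic M3 receptor, with human RGS4 induced by 1 μg/mL doxycycline for 24-48 h, loaded with Fluo-4 for 30 min at 37° C. Compound added without carbachol; fluorescence followed for 120 s, quantified as area under curve or peak intensity.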
Background: Calcium assays in cells follow changes in intracellular calcium, usually with a dye or a luminescent sensor.

Series [2] addresses RGS4. Kind of series: FCPIA: Gαo binding to RGS4. Conditions: Table 6, FCPIA; read-out: RGS4 IC50.
Description: as §1

In a further series the test system is M3 muscarinic receptor. The series is described as follows: Carbachol-induced Ca2+ response, M3 cells without RGS4 dependence. The format is cell-based. Conditions: 10 μM (FIG. 20) or as stated. The method, then:
Calcium Mobilization Experiments:
(§4) A stable cell line was developed based upon the HEK-293 Flp-In TREx cell line (Invitrogen, Carlsbad, Calif.) that stably express the muscarinic M3 receptor and have human RGS4 expression under doxycycline control. Cells were maintained in DMEM supplemented with 10% fetal bovine serum and Penicillin (100 units/ml)-Streptomycin (100 μg/ml) under 5% CO2 at 37° C. For experiments, cells were split into 96-well black, clear bottom, poly-D-lysine coated microtiter plates (Nunc, Cat. #152037) at a density of 20,000 cells/well in DMEM containing 10% fetal bovine serum and Penicillin (100 units/ml), Streptomycin (100 μg/ml). RGS4 expression was induced by supplementing the medium with 1 μg/mL doxycycline for 24-48 hours before experimentation. Cells were loaded with Fluo-4 No Wash dye in buffer for 30 minutes at 37° C. Compounds and/or carbachol were added to the wells and the fluorescence intensity was measured using a FlexStation (Molecular Devices, Sunnyvale, Calif.) plate reader. Data analysis was performed by calculating the area under the curve or maximal fluorescence intensity from a 120 second kinetic measurement.
as §4, with “Calcium signaling transients: A” for “A”, “units/ml)-Streptomycin” for “units/ml), Streptomycin”

Another series addresses papain (Carica papaya (Papaya), UniProt P00784). Kind of series: biochemical. In kind it is biochemical. From the text:
Papain (Sigma-Aldrich, St. Louis, Mo.) activity was monitored by the increase in fluorescence caused by the liberation of fluorescein from autoquenched fluorescein-conjugated casein (AnaSpec, San Jose, Calif.).

The nature of series [3]: Heart rate and blood pressure in freely-moving rats. The conditions noted are these: 0.1 mg/kg intraperitoneal vs saline. The format is in vivo. From the text: The muscarinic agonist carbachol can induce a transient bradycardic effect by activating M2 receptors in the SAN.
Where [4] appears, read: Table 3, duplex FCPIA, average of two experiments.

Converted amounts (≈) assume the structure as drawn. Read-outs that look alike come from different tables or passages of the source.

Sequence of RGS8 (P57771 other isoform, or with tags, fused parts or gaps): as the sequence (P57771 other isoform, or with tags, fused parts or gaps C160S) above, with S160C counted along it
Sequence of RGS4 (Homo sapiens (Human), UniProt P49798) (P49798 whole entry, looked up): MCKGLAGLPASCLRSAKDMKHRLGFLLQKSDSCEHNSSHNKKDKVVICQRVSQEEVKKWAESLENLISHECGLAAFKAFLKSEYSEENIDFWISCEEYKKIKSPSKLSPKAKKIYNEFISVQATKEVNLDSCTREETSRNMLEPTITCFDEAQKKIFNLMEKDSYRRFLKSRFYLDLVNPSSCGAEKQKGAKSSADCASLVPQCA
Sequence of papain (P00784 134-345): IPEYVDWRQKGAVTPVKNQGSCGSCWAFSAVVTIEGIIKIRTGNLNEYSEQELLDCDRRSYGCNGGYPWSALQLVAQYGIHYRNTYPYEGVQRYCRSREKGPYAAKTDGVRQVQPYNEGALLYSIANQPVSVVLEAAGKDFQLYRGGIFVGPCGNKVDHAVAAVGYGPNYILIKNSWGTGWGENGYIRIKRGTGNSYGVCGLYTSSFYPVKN

Usually IC50 stands for the concentration that inhibits the measured activity by half. By Ki is commonly meant a dissociation constant, usually derived from enzyme kinetics or from competition with a known ligand. A word on the inhibition: it is the share of the control response that was lost under treatment. As usually defined, the solubility is the dissolved amount per volume that the medium holds. A lower solubility goes with little dissolved substance. Regarding `Cc1ccc(-n2sc(=O)n(Cc3ccc(F)cc3)c2=O)cc1` [CCG-50014, 4-[(4-fluorophenyl)methyl]-2-(4-methylphenyl)-1,2,4-thiadiazolidine-3,5-dione], the 50% inhibitory concentration (IC50) on RGS8 (Table 2, mean of two independent FCPIA experiments) came out at 1100 nM; against 107C RGS8 (C160S) (FIG. 6) it was 46500 nM; against 160C RGS8 (C107S) (FIG. 6) it was 710 nM. The Ki on RGS8 (read-out: experimentally derived Ki value) turned out to be 300 nM. Moreover, the inhibition at 20 µM at 107C RGS8 (C160S) (20 μM, all time points, read-out: irreversible inhibition of 107C RGS8) is roughly 20%; on 160C RGS8 (C107S) (20 μM, all time points, read-out: irreversible inhibition of 160C RGS8), roughly 50%. The molecule also yielded a solubility in the series “Solubility experiments” of roughly 100 µM (≈ 31.6 µg/mL). For the same molecule, the “cell viability (WST-1)” value in the series on HEK-293 cells was “did not reduce cell viability below control levels”. In the series on δ-opioid receptor (100 nM SNC-80 + 100 μM CCG-50014), the “inhibition of forskolin-stimulated adenylate cyclase by SNC-80 with compound” value came to 44%. The “effect on forskolin-stimulation of cAMP production” value in the series with δ-opioid receptor (100 μM) was “no effect”.

`O=c1sn(-c2ccc(Cl)cc2)c(=O)n1Cc1ccc(F)cc1` [CCG-203727, 2-(4-chlorophenyl)-4-(4-fluorobenzyl)-1,2,4-thiadiazolidine-3,5-dione]: at RGS4 [1], the “Fold Selectivity (R8/R4)” value was 543, the “Fold Selectivity (RGS8 IC50/ RGS4 IC50)” value is 543, the “Selectivity RGS4/ RGS8” value was found to be 564 and the “RGS4 Hill Slope” value was −1.66. The IC50 at RGS4 [1] came to 14 nM. Also, on RGS8, the “RGS8 Hill Slope” value is −1.06. For the same molecule, the IC50 at RGS8 (setting [4]) came to 7600 nM. Further, the Emax at 10 µM with HEK293 cells was determined as 158%.

Regarding `CCCCn1sc(=O)n(CC(C)C)c1=O` [CCG-203764, 2-butyl-4-isobutyl-1,2,4-thiadiazolidine-3,5-dione], on RGS4 [1], the “Fold Selectivity (R8/R4)” value is 2513, the “Fold Selectivity (RGS8 IC50/ RGS4 IC50)” value came to 2513, the “Selectivity RGS4/ RGS8” value was 2540 and the “RGS4 Hill Slope” value is −0.87. Also, the IC50 on RGS4 [1] worked out at 39 nM. At RGS8, the “RGS8 Hill Slope” value is listed as −0.44. Also, the IC50 on RGS8 (Table 6, FCPIA) came out at 98000 nM. Moreover, in the series on HEK293 cells, the Emax at 10 µM was 142%.

As for `Cc1cccc(-n2sc(=O)n(Cc3ccccc3)c2=O)c1` [CCG-203785, 2-(3-methylphenyl)-4-benzyl-1,2,4-thiadiazolidine-3,5-dione], on RGS4 [1], the “Fold Selectivity (R8/R4)” value is on record as 561, the “Fold Selectivity (RGS8 IC50/ RGS4 IC50)” value is given as 561, the “Selectivity RGS4/ RGS8” value was determined as 558 and the “RGS4 Hill Slope” value was −1.13. This molecule had an IC50 on RGS4 [1] of 38 nM. In addition, the “RGS8 Hill Slope” value on RGS8 was −0.73. Moreover, the IC50 at RGS8 (setting [4]) amounted to 21300 nM. The Emax at 10 µM in the series with HEK293 cells was 145%.

Take `CCn1sc(=O)n(CCOC)c1=O` [CCG-203920, 2-ethyl-4-(2-methoxyethyl)-1,2,4-thiadiazolidine-3,5-dione]: the IC50 on RGS4 [2] worked out at 54.3 nM; at RGS8 (Table 6, FCPIA) it was 36100 nM. Further, the “effect on carbachol-induced Ca2+ response (RGS-independent)” value in the series on M3 muscarinic receptor is listed as “no effect”.

As to `CCN1C(=O)C=CC1=O` [N-ethyl maleimide, reference compound], the “effect on RGS8” value at RGS8 (FCPIA) was “no effect”. The “inhibition of papain by general cysteine alkylators” value at papain is reported as “no effect”.

In the case of `C[N+](C)(C)CCOC(N)=O` [carbachol, reference compound], in series [3], the “heart rate after carbachol” value is given as “significant decrease in heart rate”.

As to `NC(=O)CI` [iodoacetamide, reference compound], the “effect on Gα0 binding to the RGS proteins tested” value at RGS4 [1] (FCPIA) is “no effect”. Moreover, the “inhibition of papain by general cysteine alkylators” value on papain is on record as “dose-dependent”.

These data come from patent publication US8865750B2, “Small molecule inhibitors of RGS proteins” (The Regents of The University of Michigan, priority 2011, dated 2014).
